Assay in all cases: inhibition of tumour cell growth, NCI panel, 48 h
Test [1] deals with A549 NSCLC.
Test [2] deals with BT-549 breast.
Test [3] deals with CCRF-CEM leukemia.
For test [4], the system named is HCC-2998 colon.
Test [5] has as its system LOX IMVI melanoma.
For test [6], the system named is NCI-H226 lung.
The subject of test [7] is SF-539 CNS.
Test [8] has as its system UACC-62 melanoma.

The structures appear in SMILES notation.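 Dose response: 5 concentrations. Exposure: 48 h. Format: 96-well plates. Endpoint: linear interpolation; highest concentration if not reached. GI50: concentration for 50% inhibition of growth. TGI is the concentration that stops growth completely.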

As to `C/C=C(\C)C(=O)N[C@H]1[C@@H](OC(C)=O)C[C@]2(C)C3CC[C@@]4(C)C(CC[C@@H]4C(C)N(C)C)C3CCC2[C@H]1O` (stereo not given in full), the GI50 was 5.41 µM in test [1]; 4.81 µM in test [2]; 3570 nM in test [3]; 7.15 µM in test [4]; 1780 nM in test [5]; 5.53 µM in test [6]. In addition, the results for the GI50 in test [7] and in test [8] were 1870 nM and 1910 nM, respectively. For the same compound, the TGI in test [1] was determined as 20.3 µM; in test [2], 21.6 µM; in test [3], 21.2 µM; in test [4], 21.7 µM; in test [5] it was 4.02 µM; in test [6], 22 µM. In addition, the results for the TGI in test [7] and in test [8] were 4.97 µM and 4.13 µM, respectively.

Regarding `C=C1C(=O)O[C@@H]2C1C[C@@H](O)/C(C)=C/C/C=C(\C)CCC[C@H](C)[C@H]2OC(C)=O` (stereo not given in full), the GI50 in test [1] is 35.8 µM; in test [2], 20 µM; in test [3], 21200 nM; in test [4], 31.7 µM; in test [5], 21900 nM; in test [6], 23.2 µM. Moreover, the values for the GI50 in test [7] and in test [8] were 20400 nM and 22000 nM, respectively. For the same compound, the TGI in test [1] was > 100 µM; in test [2], 39.1 µM; in test [3], 40.2 µM; in test [4] it was > 100 µM; in test [5], 47.2 µM; in test [6] it was 44.3 µM. Besides, the TGI in test [7] was found to be 39.9 µM; in test [8], 43.5 µM.

Regarding `NCCCC(=O)Nc1ccncc1`, the GI50 is > 100 µM in test [1]; > 100 µM in test [2]; > 100000 nM in test [3]; > 100 µM in test [4]; > 100000 nM in test [5]; > 100 µM in test [6]. The GI50 in test [7] and in test [8] was > 100000 nM each time. Moreover, the TGI in test [1], in test [2], in test [3], in test [4], in test [5] and in test [6] was > 100 µM each time. For the same compound, the TGI in test [7] and in test [8] was > 100 µM in each case.

For `COc1ccc2c(c1)nc(N)c1c3cc(OC)c(OC)cc3cn21`, the GI50 is 0.0925 µM in test [1]; 0.827 µM in test [2]; 10.1 nM in test [3]; 0.0434 µM in test [4]; 69.7 nM in test [7]; < 10 nM in test [8]. The TGI in test [1] is 16.6 µM; in test [2], 15.2 µM; in test [3] it was 11 µM; in test [4], 16.5 µM; in test [5], 18.4 µM; in test [6] it was 16.8 µM. The TGI in test [7] amounted to 1.69 µM; in test [8], 21.7 µM.

For the compound `Nc1ccc(C(=O)c2ccc(N)c(Br)c2)cc1Br`, the GI50 is 0.494 µM in test [1]; 1.84 µM in test [2]; 483 nM in test [3]; 0.381 µM in test [4]; 848 nM in test [5]; 4.27 µM in test [6]. The GI50 in test [7] was 296 nM; in test [8], 645 nM. Further, the TGI in test [1] is 31.3 µM; in test [2] it was 18.8 µM; in test [3], > 100 µM; in test [4], 4.65 µM; in test [5], > 65.7 µM; in test [6], > 61.5 µM. The TGI in test [7] was 3.16 µM; in test [8], > 62.1 µM.

As for `O=C(NC1CC1)c1ccc(-c2nc3ccc4[nH]ncc4c3c3c2CCCC3)cc1`, the GI50 in test [1] was 1.63 µM; in test [2], 1.51 µM; in test [3], 2060 nM; in test [4], 3.27 µM; in test [5] it was 1950 nM; in test [6] it was 3.41 µM. The figures for the GI50 in test [7] and in test [8] were 1320 nM and 2190 nM, respectively. Further, the TGI was > 50 µM in test [1]; 7.69 µM in test [2]; > 50 µM in test [3]; 10.1 µM in test [4]; 11.7 µM in test [5]; 47.6 µM in test [6]. For the same compound, the TGI was determined as 6.68 µM in test [7] and 9.77 µM in test [8].

Regarding `CCN(CC)CCOc1ccc(Nc2ncc3cc(-c4ccc(O)cc4)c(=O)n(C)c3n2)cc1`, the GI50 in test [1] is 13.8 µM; in test [2] it was 3.33 µM; in test [3] it was 845 nM; in test [4], 15.4 µM; in test [5], 168 nM; in test [6], 4.61 µM. Also, the GI50 in test [7] was 629 nM; in test [8], 17500 nM. Also, the TGI in test [1] was 30.7 µM; in test [2], 16.5 µM; in test [3] it was > 26.4 µM; in test [4] it was 30.5 µM; in test [5], 5.87 µM; in test [6] it was 22.6 µM. Further, the TGI in test [7] amounted to 11.6 µM; in test [8], 41 µM.

Source of the values: PubChem BioAssay (NCI).
